Entries after “also recorded” stand apart in the source; their conditions may differ.
Tests used:
rats [1] = test: potentiation of ETOH delivered 24 hours after dosing (hangover liability); type: in vivo, rat; conditions: for Hangover Liability Index: ETOH 24 hours after administration; for potentiation of ETOH delivered 24 hours after drug treatment: rat, in vivo
Experimental: The important observation that Compound 1 causes very little potentiation of ETOH was extended by determining a Hangover Liability Index, the measure of the ability of the drug to potentiate ETOH 24 hours after administration (see Table 3 below). Sedative-hypnotic agents have been reported to produce drowsiness, confusion and other side effects in man on the day following the normal overnight use of these compounds.

GABAA receptor = test: [35S]TBPS binding to rat cortex membranes
From the text: TBPS binds to a site on the GABAA receptor which is closely associated with the chloride channel, and an increase in TBPS binding correlates with increased activation of the chloride conductance (i.e., enhanced GABAA receptor function). Compounds which act as agonists at the benzodiazepine site increase TBPS binding to varying degrees, which reflects their relative efficacies.

rats [2] = test: potentiation of ETOH-induced loss of righting response, ETOH 60 minutes after dosing; type: in vivo, rat; conditions: for ETOH Liability Index: ratio ED50 motor activity / MED ETOH potentiation; for Minimum Effective Dose (MED mg/kg) to potentiate ETOH-induced loss of righting response: rats, ETOH 3.2 g/kg i.p. 60 minutes after dosing
From the text: Benzodiazepines and barbiturate sedative-hypnotics produce a profound potentiation of the deleterious effects of ethanol (ETOH) in man and animals (Ayd, supra). Intraperitoneal ETOH alone, when administered to rats at a dose of 3.2 g/kg, produces a reliable loss of righting response. The loss of righting response caused by ETOH can be used to measure the possible interaction of ETOH with test drugs. This is done by delivering the ETOH and a test drug sequentially, and determining the Minimum Effective Dose of test drug which will potentiate the time that ETOH produces the loss of righting response. The ETOH Liability Index for a drug can be determined by calculating the ratio of (1) the ED50 of the test drug to decrease motor activity (a measure of sedation) to (2) the Minimum Effective Dose (MED) of the test drug to potentiate the time for ETOH-induced loss of righting response.
ETOH Liability Indices were determined experimentally for Compound 1, flurazepam and triazolam by intraperitoneally delivering ETOH (3.2 g/kg) to the animals 60 minutes after dosing with each test drug (see Table 2 below).

rats [3] = test: inclined screen grip strength test; type: in vivo, rat; conditions: for ED50: Rattus norvegicus
Experimental: (§1) The sedative effects of Compound 1 were measured in rats using a panel of standard tests which monitor the effects of drugs on motor activity, muscle relaxation and motor coordination.
(§2) This latter compound is well characterized as a competitive antagonist at the benzodiazepine site, which can reverse the effects of benzodiazepine site agonists.
(§3) Administration of benzodiazopines to animals and to man for periods of several weeks can result in a tolerance to their sedative effects (Finkle, supra). In order to assess tolerance to Compound 1, its effects were tested on rat motor activity, and on grip strength using the inclined screen procedures after single and repeated administrations. The results of these studies were then compared to results gathered from rats which had received similar dosings of triazolam.

rats [4] = test: motor activity in rats (activity meter); type: in vivo, rat; conditions: for ED50: Rattus norvegicus
Experimental: as §1, §2, §3

rats [5] = test: one-trial passive avoidance test (amnesia); type: in vivo, rat; conditions: for Amnestic Liability Index: ratio ED50 decreased motor activity / MED to produce amnesia
Experimental: This effect can be studied in rats by the one-trial passive avoidance test. In this test an undrugged, naive rat is given an electric shock when it moves from the illuminated side to the darkened side of a two-compartment chamber. When tested for recall of this training 24 hours later, a placebo-injected animal will show excellent recall of the aversive training, and thus a high latency time for entering the darkened side.

[6] = target: benzodiazepine site on the GABAA receptor; test: [3H]flunitrazepam binding to rat cortex; conditions: for IC50: rat cortex, read-out: IC50, displacement of [3H]flunitrazepam binding
squirrel monkeys [7] = test: Squirrel Monkey Conflict Procedure; type: in vivo
Experimental: The Squirrel Monkey Conflict Procedure involves monkeys which are initially trained to press a bar to receive a food reward. In later sessions the animals were given occasional electrical shocks following randomly selected bar presses. These animals responded to the conflict situation by substantially lowering their levels of bar-pressing activity. […] This increase in conflict response reflects the anxiolytic effects of the drug. The increase drops off at 4.0 mg/kg, which may be due to a subtle sedative effect of the compound which begins developing in this dose range. The inverted-U shaped dose-response function described above for Compound 1 is consistent with the profile of other sedative-hypnotic drugs of the benzodiazepine-ligand class, and reflects the sedative properties of these drugs (Cook and Sepinwall, supra).

squirrel monkeys [8] = test: vigilance test (reaction time) in squirrel monkeys; type: in vivo, squirrel monkey; conditions: >1 mg/kg orally one hour before testing
From the text: Vigilance tests based on reaction time measurements in monkeys measure drug induced slowing of responses and decreases in attentional or cognitive processes. Squirrel monkeys were trained to respond to a visual trigger by bar pressing for a food reward.

squirrel monkeys [9] = test: EEG studies in squirrel monkeys; type: in vivo, squirrel monkey; conditions: 4.0 mg/kg i.m.
Experimental: (§4) Compound 1 produced dose-related increases in sleep duration in rats, with a minimum effective dose of 2.0 mg/kg.

rats [10] = test: rod walking test; type: in vivo; conditions: Rattus norvegicus, oral
Experimental: as §1

rats [11] = test: sleep duration in rats; type: in vivo, rat
Experimental: as §4

[12] = target: benzodiazepine site on the GABAA receptor; test: [3H]flunitrazepam binding to rat cerebellum membranes; conditions: read-out: IC50, inhibition of [3H]flunitrazepam binding
rats [13] = test: Thirsty Rat Conflict Procedure; type: in vivo
Experimental: The Thirsty Rat Conflict Procedure involves rats which are deprived of water for 48 hours. They are then given brief electrical shocks following each 20th lick of a drinking tube. These shocks create a “conflict situation” which results in a marked decrease in licking (drinking) behavior.

rats [14] = test: prevention of chemically induced convulsions in rats; type: in vivo, rat; conditions: for ED50: Rattus norvegicus
From the text: Benzodiazepine sedative-hypnotic agents are potent anticonvulsants in animals, and are used clinically for the treatment of status epilepticus. Oral doses of Compound 1 were effective in blocking convulsions in rats which resulted from injections of agents know to induce convulsion (see Table 1 below).

rats [15] = test: panel of standard tests for sedative effects in rats (motor activity, muscle relaxation, motor coordination); type: in vivo, rat
Experimental: as §1

rats [16] = test: prevention of electrical shock induced convulsions; type: in vivo; conditions: Rattus norvegicus; oral; 150 mA, 60 Hz transcorneal shock for 0.3 seconds; read-out: ED50 blocking electrical shock induced convulsions
[17] = inclined screen, fourth day of daily dosing, read-out: ED50 grip strength, tolerance study
[18] = inclined screen, single administration, read-out: ED50 grip strength, tolerance study
[19] = Table 2, read-out: Decrease in Motor Activity (ED50 mg/kg)
[20] = fourth day of daily dosing, read-out: ED50 motor activity, tolerance study
[21] = single administration, read-out: ED50 motor activity, tolerance study
[22] = 3.1 mg/kg Compound 1 p.o. + 10 mg/kg Ro 15-1788 i.p.

Which “Hangover Liability Index” value (rats [1]) does the source give for `Cc1nnc2n1-c1ccc(Cl)cc1C(c1ccccc1Cl)=NC2` [triazolam, reference compound] here?
Its value is 10.

And the “potentiation of ETOH delivered 24 hours after drug treatment” value (rats [1])?
The value was “significantly potentiated”.

And the “Emax, maximum enhancement of TBPS binding” value (GABAA receptor)?
Its value is 78%.

What about the “ETOH Liability Index” value (rats [2]) of the same compound?
Its value is 20.

What about the “Minimum Effective Dose (MED mg/kg) to potentiate ETOH-induced loss of righting response” value (rats [2]) of the same compound?
Its value is “.08 mg/kg”.

And the ED50 (rats [3]; [17])?
The ED50 was over 100 mg/kg.

What about the ED50 (rats [3]; [18]) of the same compound?
The ED50 was 5.1 mg/kg.

And the ED50 (rats [4]; [19])?
Its ED50 is 1.6 mg/kg.

And the ED50 (rats [4]; [20])?
The ED50 was over 100 mg/kg.

What about the ED50 (rats [4]; [21]) of the same compound?
Its ED50 is 3.9 mg/kg.

What about the “Amnestic Liability Index” value (rats [5]) of the same compound?
The value was 1.6.

What about the IC50 [6] of the same compound?
The IC50 was 0.5 nM.

Which results are given for `CC(=O)N(C)c1cccc(-c2ccnc3c(C(=O)c4cccs4)cnn23)c1` [Compound 1, N-methyl-N-(3-{3-[2-thienylcarbonyl]-pyrazol-[1,5-α]-pyrimidin-7-yl}phenyl)acetamide]?
increase in conflict response (squirrel monkeys [7]; 4.0 mg/kg): drops off; increase above baseline responses to conflict situation (squirrel monkeys [7]; oral 2.0 mg/kg): 100%; effect on accuracy and latency of responses (squirrel monkeys [8]): dose related decrements in both the accuracy and latency of the responses; changes in EEG power spectrum (squirrel monkeys [9]): a relative decrease in alpha activity and an increase in beta activity; ED50 (rats [10]): 3 mg/kg; minimum effective dose for increase in sleep duration (rats [11]): 2.0 mg/kg; IC50 [12]: 2 nM; Hangover Liability Index (rats [1]): 0.0; potentiation of ETOH delivered 24 hours after drug treatment (rats [1]): failed to potentiate ETOH; Emax, maximum enhancement of TBPS binding (GABAA receptor): 65%; increase in number of shocks accepted vs vehicle control (rats [13]; oral 0.3 mg/kg): 100%; times less ETOH liability compared to triazolam and flurazepam (rats [2]; rat, in vivo, oral, 60 min): ≥ 10 times; ETOH Liability Index (rats [2]): 0.48; Minimum Effective Dose (MED mg/kg) to potentiate ETOH-induced loss of righting response (rats [2]): 2.5 mg/kg; effect on grip strength (inclined screen) with Ro 15-1788 co-treatment (rats [3]; [22]): reverse the impairment of grip strength; also recorded: reversed; ED50 (rats [3]; [17]): 18.3 mg/kg; ED50 (rats [3]; [18]): 2.6 mg/kg; ED50 (rats [3]; po, inclined screen grip strength test, read-out: ED50 for muscle relaxant effects): 2.7 mg/kg; ED50 (rats [14]; rats, oral, inducer Bicuculline (iv), read-out: ED50 preventing convulsion): 2.3 mg/kg; ED50 (rats [14]; rats, oral, inducer Pentylenetetrazol (iv), read-out: ED50 preventing convulsion): 2.5 mg/kg; ED50 (rats [14]; read-out: ED50 preventing convulsion, rats, oral, inducer Picrotoxin (sc)): 1.9 mg/kg; ED50 (rats [14]; read-out: ED50 preventing convulsion, rats, oral, inducer Strychnine (sc)): 4.4 mg/kg; anticonvulsant potency relative to reference drugs (rats [14]; all five methods (four chemical inducers and electrical shock)): less than that of triazolam and greater than that of flurazepam; sedative potency relative to reference drugs (rats [15]): approximately equipotent with triazolam and more potent than zolpidem and flurazepam; effect on motor/locomotor activity with Ro 15-1788 co-treatment (rats [4]; [22]): antagonize the decreases in motor activity; also recorded: reversed; ED50 (rats [4]; [19]): 1.2 mg/kg; ED50 (rats [4]; [20]): 14.5 mg/kg; ED50 (rats [4]; po, activity meter, read-out: ED50 for decrease in motor activity): 1.2 mg/kg; ED50 (rats [4]; [21]): 2.4 mg/kg; ED50 (rats [16]): 5.5 mg/kg; amnestic effect (rats [5]; rat, in vivo): small amnestic effect compared to triazolam or flurazepam; Amnestic Liability Index (rats [5]): 0.15; IC50 [6]: 9.8 nM

With `CN1C(=O)CN=C(c2ccccc2F)c2cc([N+](=O)[O-])ccc21` [flunitrazepam] as the compound, how does the IC50 [6] read?
Its IC50 is 114 nM.

Which results are given for `CN1C(=O)CN=C(c2ccccc2)c2cc(Cl)ccc21` [diazepam]?
Emax, maximum enhancement of TBPS binding (GABAA receptor): 55%; IC50 [6]: 17 nM

Which results are given for `CC(=O)Nc1cccc(-c2ccnc3c(C(=O)c4cccs4)cnn23)c1` [desmethyl metabolite of Compound 1]?
Emax, maximum enhancement of TBPS binding (GABAA receptor): 28%; effect in thirsty rat conflict model (rats [13]; 12 mg/kg): without effect; sedative effects in the test panel (rats [15]; motor activity, inclined screen, rod walking): did not show sedative effects; times less potent than Compound 1 in displacing radiolabeled flunitrazepam [6]: approximately 74 times; IC50 [6]: 725 nM

With `Cc1ccc(-c2nc3ccc(C)cn3c2CC(=O)N(C)C)cc1` [zolpidem] as the compound, how does the IC50 [6] read?
The IC50 was 26 nM.

Which results are given for `CCN(CC)CCN1C(=O)CN=C(c2ccccc2F)c2cc(Cl)ccc21` [flurazepam]?
Hangover Liability Index (rats [1]): 2.5; potentiation of ETOH delivered 24 hours after drug treatment (rats [1]): significantly potentiated; Emax, maximum enhancement of TBPS binding (GABAA receptor): 71%; ETOH Liability Index (rats [2]): 4.98; Minimum Effective Dose (MED mg/kg) to potentiate ETOH-induced loss of righting response (rats [2]): 5.0 mg/kg; ED50 (rats [4]; [19]): 24.9 mg/kg; Amnestic Liability Index (rats [5]): 3.1
